Results reported in US5824698A, “Antibacterial dibenzimidazole derivatives” (priority 1994, dated 1998).
Values after ≈ are worked out from the molar mass of the structure shown. Like-named read-outs stand apart in the source and are kept apart here.

How the values were obtained:
Experiment in all cases: Antibacterial activity in vitro (MIC, standard agar method)
Assay type in all cases: cell-based
B. subtilis ATCC 585369 = details: Bacillus subtilis, ATCC585369, DST agar, 35° C., 20 hours, read-out: Minimum inhibitory concentration (MIC)
Description: (§1) The minimum inhibitory concentration (MIC) of the substances investigated against gram-positive and gram-negative strains was determined using standard agar methods. The compounds were dissolved in a small amount of dimethyl sulphoxide, diluted with water and incorporated into liquified DST agar at 50° C. The thus-produced agar plates were used immediately thereafter in the test. The test concentrations lay between 128 and 0.06 μg/ml. The bacterial inoculation solutions were prepared from pre-cultures grown overnight, diluted and applied to the agar surface using an inoculation device (Denley A400). The plates were incubated at 35° C. for 20 hours. The MIC was determined as the lowest concentration of substance which prevented a visible growth. A scarcely visible turbidity and the growth of less than 5 colonies were ignored. The determinations of the antibacterial activities (Tab. 1) were carried out not only for the free bases, but also for the hydrochloride salt of each compound. The same values were obtained within experimental error.

E. cloacae P 99 = details: Enterobacter cloacae, P99, 20 h, read-out: Minimum inhibitory concentration (MIC)
Description: as §1

E. coli 1346 = details: Escherichia coli, DST agar, 35° C., 20 hours, read-out: Minimum inhibitory concentration (MIC)
Description: as §1

E. coli 1527 E = details: Escherichia coli, read-out: Minimum inhibitory concentration (MIC)
Description: as §1

E. coli 25922 = details: read-out: Minimum inhibitory concentration (MIC)
Description: as §1

E. coli AS-19 = details: Escherichia coli, AS19, DST agar, 35° C., 20 hours, read-out: Minimum inhibitory concentration (MIC)
Description: as §1

E. coli B = details: Escherichia coli, DST agar, 35° C., 20 hours, read-out: Minimum inhibitory concentration (MIC)
Description: as §1

E. coli DC2 = details: Escherichia coli; E. coli DC2; DST agar, 35° C., 20 hours; read-out: Minimum inhibitory concentration (MIC)
Description: as §1

E. coli H560 = details: Escherichia coli, H560, 20 h, read-out: Minimum inhibitory concentration (MIC)
Description: as §1

[1] = tested on: E. coli K12 KEA-12 (GyrA); details: Escherichia coli, 20 h, read-out: Minimum inhibitory concentration (MIC)
Description: as §1

E. faecalis 6 = details: read-out: Minimum inhibitory concentration (MIC)
Description: as §1

K. oxytoca 1082E = details: Klebsiella oxytoca, DST agar, 35° C., 20 hours, read-out: Minimum inhibitory concentration (MIC)
Description: as §1

P. aeroginosa BA = details: DST agar, 35° C., 20 hours, read-out: Minimum inhibitory concentration (MIC)
Description: as §1

P. aeroguinosa 3351 = details: read-out: Minimum inhibitory concentration (MIC)
Description: as §1

P. aeruginosa 799/61 = details: Pseudomonas aeruginosa, 799/61, 20 h, read-out: Minimum inhibitory concentration (MIC)
Description: as §1

S. marcescens = details: Serratia marcescens, 20 h, read-out: Minimum inhibitory concentration (MIC)
Description: as §1

Staph. aureus 25923 = details: Staphylococcus aureus, DST agar, 35° C., 20 hours, read-out: Minimum inhibitory concentration (MIC)
Description: as §1

Staph. aureus 887 = details: Staphylococcus aureus, DST agar, 35° C., 20 hours, read-out: Minimum inhibitory concentration (MIC)
Description: as §1

Staph. haemolyticus 75 = details: Staphylococcus haemolyticus, DST agar, 35° C., 20 hours, read-out: Minimum inhibitory concentration (MIC)
Description: as §1

S. aureus 101 = details: Staphylococcus aureus, DST agar, 35° C., 20 hours, read-out: Minimum inhibitory concentration (MIC)
Description: as §1

[2] = Enterococcus faecalis, E. faecalis 6, DST agar, 35° C., 20 hours
[3] = Escherichia coli, E. coli 25922, DST agar, 35° C., 20 hours

Compound | MIC (B. subtilis ATCC 585369) [mg/L] | MIC (E. cloacae P 99) [mg/L] | MIC (E. coli 1346) [mg/L] | MIC (E. coli 1527 E; 1527E, 20 h) [mg/L] | MIC (E. coli 25922; Escherichia coli, 25922, 20 h) [mg/L] | MIC (E. coli AS-19) [mg/L] | MIC (E. coli B) [mg/L] | MIC (E. coli DC2) [mg/L] | MIC (E. coli H560) [mg/L] | MIC [1] [mg/L] | MIC (E. faecalis 6; [2]) [mg/L] | MIC (K. oxytoca 1082E) [mg/L] | MIC (P. aeroginosa BA) [mg/L] | MIC (P. aeroguinosa 3351; 20 h) [mg/L] | MIC (P. aeruginosa 799/61) [mg/L] | MIC (S. marcescens) [mg/L] | MIC (Staph. aureus 25923) [mg/L] | MIC (Staph. aureus 887) [mg/L] | MIC (Staph. haemolyticus 75) [mg/L] | MIC (E. coli 25922; [3]) [mg/L] | further results
COc1cc(-c2nc3ccc(-c4ccc5nc(-c6ccc(O)c(OC)c6)[nH]c5c4)cc3[nH]2)ccc1O [Example 3, 4-[2'-(4-Hydroxy-3-methoxy-phenyl)-6,6'-dibenzimidazol-2-yl]-2-methoxy-phenyl] | 32 (≈ 66.9 µM) | > 128 | 64 (≈ 134 µM) | > 128 | > 128 | > 128 | 16 (≈ 33.4 µM) | 8 (≈ 16.7 µM) | > 128 | > 128 | 4 (≈ 8.36 µM) | > 128 | > 128 | > 128 | > 128 | > 128 | 4 (≈ 8.36 µM) | 8 (≈ 16.7 µM) | 4 (≈ 8.36 µM) | – | –
COc1ccc(-c2nc3ccc(-c4ccc5nc(-c6ccc(OC)c(O)c6)[nH]c5c4)cc3[nH]2)cc1O [Example 4, 5-[2'-(3-Hydroxy-4-methoxy-phenyl)-6,6'-dibenzimidazol-2-yl]-2-methoxy-phenol] | ≤ 0.25 | > 128 | ≤ 0.25 | > 128 | > 128 | 1 (≈ 2.09 µM) | ≤ 0.25 | 2 (≈ 4.18 µM) | > 128 | > 128 | 32 (≈ 66.9 µM) | > 128 | > 128 | > 128 | > 128 | > 128 | 0.5 (≈ 1.04 µM) | 0.5 (≈ 1.04 µM) | ≤ 0.25 | – | MIC (S. aureus 101): ≤ 0.25 mg/L
Oc1cccc(-c2nc3ccc(-c4ccc5nc(-c6cccc(O)c6)[nH]c5c4)cc3[nH]2)c1 [Example 6, 3-[2'-(3-Hydroxy-phenyl)-6,6'-dibenzimidazol-2-yl]-phenol] | 2 (≈ 4.78 µM) | > 128 | 2 (≈ 4.78 µM) | > 128 | – | 1 (≈ 2.39 µM) | 0.5 (≈ 1.19 µM) | 1 (≈ 2.39 µM) | > 128 | > 128 | 2 (≈ 4.78 µM) | > 128 | > 128 | > 128 | > 128 | > 128 | 2 (≈ 4.78 µM) | 2 (≈ 4.78 µM) | 1 (≈ 2.39 µM) | > 128 | MIC (S. aureus 101): 0.12 mg/L (≈ 0.287 µM)
Nc1ccc(-c2nc3ccc(-c4ccc5nc(-c6ccc(N)cc6)[nH]c5c4)cc3[nH]2)cc1 [Example 7, 4-[2'-(4-Amino-phenyl)-6,6'-dibenzimidazol-2-yl]-phenylamine] | 2 (≈ 4.8 µM) | > 128 | ≤ 0.12 | > 128 | – | 4 (≈ 9.6 µM) | 0.25 (≈ 0.6 µM) | ≤ 0.12 | > 128 | > 128 | ≤ 0.12 | > 128 | > 128 | > 128 | > 128 | > 128 | 1 (≈ 2.4 µM) | 2 (≈ 4.8 µM) | > 0.12 | > 128 | –
COc1ccc(-c2nc3ccc(-c4ccc5nc(-c6ccc(OC)cc6)[nH]c5c4)cc3[nH]2)cc1 [Example 8, 2,2'-Bis-(4-methoxy-phenyl)-6,6'-dibenzimidazole] | 0.5 (≈ 1.12 µM) | > 128 | 8 (≈ 17.9 µM) | – | > 128 | 32 (≈ 71.7 µM) | 8 (≈ 17.9 µM) | 64 (≈ 143 µM) | > 128 | > 128 | – | > 128 | > 128 | > 128 | > 128 | > 128 | 1 (≈ 2.24 µM) | 0.5 (≈ 1.12 µM) | ≤ 0.25 | – | MIC (E. coli 1527 E; E. coli 1527 E, DST agar, 35° C., 20 hours): > 12 mg/L; MIC (E. faecalis 6; Enterococcus faecalis, 6, 20 h): > 128 mg/L
c1coc(-c2nc3ccc(-c4ccc5nc(-c6ccco6)[nH]c5c4)cc3[nH]2)c1 [Example 10, 2,2'-Difuran-2-yl-6,6'-dibenzimidazole] | – | > 128 | 8 (≈ 21.8 µM) | > 128 | – | 0.5 (≈ 1.36 µM) | – | 1 (≈ 2.73 µM) | > 128 | > 128 | – | > 128 | > 128 | – | > 128 | > 128 | 4 (≈ 10.9 µM) | 2 (≈ 5.46 µM) | 0.25 (≈ 0.682 µM) | > 128 | MIC (E. faecalis 6; Enterococcus faecalis, 6, 20 h): > 128 mg/L; MIC (P. aeroguinosa 3351; P. aeroguinosa 3351, DST agar, 35° C., 20 hours): > 129 mg/L
